Experimental data: the CheMixHub drug solubility set

Assay: xn = mol fraction of the nth substance listed, in the solute-free solvent

NCCS(=O)(=O)O + O + CC(O)CO
solubility (g/100 g solution)
Settings | 298.15 K | 303.15 K | 308.15 K | 313.15 K | 318.15 K
x2 = 0.8085 | 0.283 | 0.373 | 0.413 | 0.484 | 0.694
x2 = 0.8636 | 0.605 | 0.646 | 0.75 | 0.914 | 1.26
x2 = 0.9079 | 0.929 | 1 | 1.36 | 1.64 | 2.12
x2 = 0.9441 | 1.72 | 2.03 | 2.51 | 3.03 | 3.67
x2 = 0.9744 | 3.42 | 4.2 | 5.01 | 5.6 | 6.88

NC(Cc1c[nH]c2ccccc12)C(=O)O (stereo not given) + O + CO
solubility (g/100 g solution)
Settings | 288.15 K | 293.15 K | 298.15 K | 303.15 K | 308.15 K
x2 = 0.1908 | 0.556 | 0.608 | 0.684 | 0.776 | 0.875
x2 = 0.3955 | 0.677 | 0.741 | 0.831 | 0.94 | 1.06
x2 = 0.595 | 0.827 | 0.902 | 1.01 | 1.14 | 1.28
x2 = 0.7962 | 1.02 | 1.11 | 1.23 | 1.38 | 1.56

NCCS(=O)(=O)O + O + OCCO
solubility (g/100 g solution)
Settings | 298.15 K | 303.15 K | 308.15 K | 313.15 K | 318.15 K
x2 = 0.775 | 1.2 | 1.44 | 1.68 | 2.16 | 2.27
x2 = 0.8378 | 1.63 | 1.92 | 2.28 | 2.83 | 3.17
x2 = 0.8893 | 2.24 | 2.94 | 3.18 | 3.64 | 4.08
x2 = 0.9323 | 3.39 | 4.12 | 4.67 | 5.48 | 6.21
x2 = 0.9688 | 5.08 | 6.22 | 7.45 | 8.66 | 10.1
